Data set [1] in a line: Solubility of T-cell epitope polypeptides in E1E2 buffer (Protocol 1). The conditions noted are these: for solubility in E1E2 buffer (in words): Protocol 1, 1 mg/ml in E1E2 buffer, Nanodrop, FIG. 6, estimates based on A280 nm reading; for solubility: E1E2 buffer (10 mM sodium citrate, 250 mM NaCl, 1 mM EDTA, 0.1% TWEEN 80, pH 6.0), without adding dimethylsulfoxide, read-out: soluble in E1E2 buffer at a concentration of. Format: physicochemical. The protocol:
For example, the peptides TP35-NS3 and TP50C are soluble in E1E2 buffer at a concentration of at least 1 mg/ml. The peptides TP35-NS3 and TP50C are soluble in E1E2 buffer at a concentration of at least 1 mg/ml, without the need for adding dimethylsulfoxide (DMS). In some cases, a T-cell epitope polypeptide suitable for inclusion in a composition of the present disclosure is soluble in E1E2 buffer at a concentration of at least 25 μg/ml, at least 30 μg/ml, at least 35 µg/ml, at least 50 μg/ml, at least 75 μg/ml, at least 100 μg/ml, at least 250 μg/ml, at least 500 µg/ml, at least 750 μg/ml, or at least 1 mg/ml.
Protocol 1 The solubility of the T-cell epitope polypeptides in E1E2 buffer was determined. E1E2 buffer: 10 mM sodium citrate, 250 mM NaCl, 1 mM ethylenediaminetetraacetic acid (EDTA), 0.1% non-ionic detergent TWEEN® 80, pH 6.0. Lyophilized T-cell epitope polypeptides were individually added to E1E2 buffer at a final concentration of 1 mg T-cell epitope polypeptide per ml E1E2 buffer, to generate T-cell epitope polypeptide/E1E2 solutions. The T-cell epitope polypeptide/E1E2 solutions were vortexed for 3 seconds. The T-cell epitope polypeptide/E1E2 solutions were then centrifuged at 10,000×g for 30 seconds. […] After centrifugation, the concentration of peptides was measured using Nanodrop (Thermo Fisher).
Solubility values shown in FIG. 6 are estimates based on A280 nm reading.

The next data set is described as follows: FIG. 6. An excerpt: Table printed on a drawing sheet, FIG. 6
The patent's description of the figure: FIG. 6 provides the solubility of various T-cell epitope polypeptides in an aqueous buffer. TP35-NS3: SEQ ID NO:133; TP35-NS3(Lys)3: SEQ ID NO:302; TP42: SEQ ID NO:228; TP45 (C-terminal CNV replaced with KKK): SEQ ID NO:248; TP48: SEQ ID NO:254; TP48(Lys)3: SEQ ID NO:257; and TP50-C: SEQ ID NO:148.
First reader's note: Blanks inside the sequences only mark line breaks within the printed cell.

Data set [2] can be described thus: Solubility of reconstituted lyophilized peptides (Protocol 3). The conditions noted are these: Protocol 3, reconstituted in E1E2 buffer, E1E2 buffer without Tween, or water; shaking 2 h 30 min at room temperature; FIG. 13. Format: physicochemical. As to the method:
Protocol 3 TP42, TP45(Lys)3, and TP48 were lyophilized. The lyophilized peptides were reconstituted in: i) E1E2 buffer; or ii) E1E2 buffer without Tween; or iii) water. The reconstituted peptide solutions were vigorously vortexed for 20 seconds. After vortexing, the peptide solutions were incubated at room temperature with continuous shaking at 300 rpm for 2 hours 30 minutes. Afterwards, peptide solutions were centrifuged at 5000×g for 1 minute. After centrifugation, the concentration of the peptides in the supernatant was measured.

The nature of data set [3]: TP42-2: […] MW= 4543 g/mol; EC= 3105 (secreted protein). As to the method: Table printed on a drawing sheet, FIG. 27
Title: TP42-2: […] MW= 4543 g/mol; EC= 3105 (secreted protein)
The patent's description of the figure: FIG. 27 depicts solubility data for a TP33 T-cell epitope polypeptide (SEQ ID NO:279) and a TP42-2 T-cell epitope polypeptide (SEQ ID NO:291).
First reader's note: The sequence, MW and EC of TP42-2 are printed above the table; each row is one solution in which solubility was tested.

Values joined by “and” are separate entries in the source; they are usually repeats but may differ in a detail not shown here. Equal entries are not always repeated. No end group written: not given here. Some results are limits rather than exact numbers.

The values below come from patent publication US12048742B2, “Hepatitis C virus peptide compositions and methods of use thereof” (The Governors of the University of Alberta, priority 2018, dated 2024).

For the compound `CC[C@H](C)[C@H](NC(=O)[C@@H](NC(=O)[C@H](CO)NC(=O)[C@H](CC(=O)O)NC(=O)[C@H](Cc1ccccc1)NC(=O)[C@H](CC(=O)O)NC(=O)CNC(=O)[C@@H](NC(=O)[C@H](Cc1ccccc1)NC(=O)CNC(=O)[C@@H](NC(=O)[C@H](CCSC)NC(=O)[C@H](CC(C)C)NC(=O)[C@H](C)NC(=O)[C@H](CC(=O)O)NC(=O)[C@@H](NC(=O)[C@H](C)NC(=O)[C@@H](NC(=O)[C@@H](NC(=O)[C@@H](NC(=O)[C@@H](NC(=O)[C@H](CC(=O)O)NC(=O)CNC(=O)[C@H](CO)NC(=O)[C@@H](NC(=O)[C@@H]1CCCN1C(=O)[C@@H](NC(=O)[C@@H](NC(=O)[C@H](CO)NC(=O)[C@@H](NC(=O)[C@H](CC(=O)O)NC(=O)[C@H](CC(C)C)NC(=O)CNC(=O)[C@H](CCCNC(=N)N)NC(=O)[C@H](Cc1ccc(O)cc1)NC(=O)[C@H](Cc1ccc(O)cc1)NC(=O)[C@H](C)NC(=O)[C@@H](NC(=O)[C@H](C)NC(=O)[C@H](CC(N)=O)NC(=O)[C@@H](N)CC(C)C)C(C)C)C(C)C)C(C)C)[C@@H](C)CC)[C@@H](C)O)C(C)C)C(C)C)C(C)C)C(C)C)[C@@H](C)O)[C@@H](C)O)[C@@H](C)O)C(C)C)C(=O)N[C@@H](CC(=O)O)C(=O)N[C@@H](CCCCN)C(=O)N[C@@H](CCCCN)C(=O)N[C@@H](CCCCN)C(=O)O`, in data set [1], the “solubility in E1E2 buffer (in words)” value is given as “much lower solubility”. As to “GTEGEIPFYGKAIPLEQIKGGRHLIFCHSKKKCDELAAKLTG [TP42] [listing 1 of 2 here]”, in “FIG. 6”, the “Measured Concentration” value worked out at 0.079 mg/mL and the “Solubility (%)” value turned out to be 12%.

As for “GTEGEIPFYGKAIPLEQIKGGRHLIFCHSKKKCDELAAKLTG [TP42] [listing 2 of 2 here]”, the “solubility (in words)” value in data set [2] was “good solubility”. Besides, the “visible precipitation in E1E2 buffer” value in data set [1] (Protocol 1, 1 mg peptide per ml E1E2 buffer, after vortexing and centrifugation at 10,000×g) is “precipitation was visible”. In data set [1], the “solubility in E1E2 buffer (in words)” value was “much lower solubility”. In the case of “GVYLLPRRGPRLGVRATRKTSERSQPRGRRQPIPKARRSEGRSWAQPGYP [TP50-C]”, in data set [1], the solubility is not below 1000 µg/mL and the “solubility in E1E2 buffer (in words)” value is “good solubility”.

On to “ILRRHVGPGEGAVQWMNRLIAFASRGNHVSPTHYVPESDASARVTQIL [TP48]”, for which, in data set [2], the “solubility (in words)” value is recorded as “good solubility”. Regarding “ILRRHVGPGEGAVQWMNRLIAFASRGNHVSPTHYVPESDASARVTQILKKK [TP48-(Lys)3]”, in data set [1], the “solubility in E1E2 buffer (in words)” value is “good solubility”. As to “KGGRHLIFCHSKKKCDELAAKLTGLGLNAVAYYRGLDVSVIP [TP42-2]”, in data set [3], the “Solubility | Measured” value is 415 µg/mL and 215 µg/mL and 233 µg/mL; the “Solubility | Percent (%)” value is 83% and 43% and 47%. On to “KSTKVPAAYAAQGYKVLVLNPSVAATLGFGAYMSK [TP35-NS3]”, for which, in data set [1], the solubility was not below 1000 µg/mL and the “solubility in E1E2 buffer (in words)” value is given as “good solubility”. Consider “KSTKVPAAYAAQGYKVLVLNPSVAATLGFGAYMSKKKK [TP35-NS3-(Lys)3]”, for which, in data set [1], the “solubility in E1E2 buffer (in words)” value is “good solubility”.
